For data set [1], the system named is immortalized Fuchs' endothelial corneal dystrophy cells (iFECD). Description: Caspase 3/7 activity (Caspase-Glo 3/7 Assay) in iFECD under TGF-β2 stimulation, primary and secondary screening. In kind it is cell-based, human. The conditions noted are these: for activity at 10 µM: Homo sapiens. The protocol: 7×10^3 immortalized Fuchs' endothelial corneal dystrophy cells were seeded on a 96-well plate and were cultured for 24 hours under the condition of 5% CO2 at 37° C. Dulbecco's Modified Eagle Medium (DMEM) (nacalai tesque, 26252-94)+10% FBS (Biological Industries/04-001-1A)+1% penicillin-streptomycin (nacalai tesque, 26252-94) was used as the medium. Next, TGF-β2 (manufacturer: R&D Systems, Inc., distributor: Wako Pure Chemical Industries, Ltd./manufacturer codes 302-B2-002, 302-B2-010, distributor codes: 553-62881, 559-62883) (5 ng/mL) alone, or both TGF-β2 (5 ng/mL) and each agent of SCREEN-WELL® FDA Approved Drug Library V2, Japan version (10 μM) were added. After 28 hours under the condition of 5% CO2 at 37° C., cell morphology was observed using a phase difference microscope. Caspase 3/7 activity was then measured using Caspase-Glo 3/7 Assay (Promega, #G8091). DMEM+2% FBS+1% P/S was used as the medium. Caspase 3/7 activity and cell viability in this example were measured using Veritas™ Microplate Luminometer. Such a device enables many samples to be simultaneously measured.
The control group was supplemented with a solvent of each reagent, i.e., DMSO (Dimethyl Sulfoxide, Sterile-filtered) (nacalai tesque, 13408-64). Further, Z-VD-FMK (isomer mixture) (Wako Pure Chemical Industries, Ltd./262-02061) (10 μM), which is a caspase inhibitor, was used as the positive control. In the primary screening, measurement of Caspase 3/7 activity was carried out with n=2. […] Caspase activity was measured after being cultured in Dulbecco's Modified Eagle Medium (DMEM)+2% fetal bovine serum (FBS)+1% penicillin/streptomycin (P/S) for 28 hours.
Measurement was carried out with n=2 as the primary screening and a TGF-β2 (5 ng/mL) supplemented group was set as 100%. […] (1) and (2) of the control group, TGF-β2 (5 ng/mL) supplemented group, TGF-β2 (5 ng/mL)+Z-VD-FMK supplemented group (10 μM) are n=5 in total.
Evaluation of Caspase 3/7 activity was carried out with n=5 in the secondary screening.

Data set [2] has the same test system. Description: Cell viability (CellTiter-Glo Luminescent Cell Viability Assay) in iFECD, secondary screening. In kind it is cell-based, human. As to conditions: agent 10 μM, absence of TGF-β; for Secondary screening Viable cell number (%): 28 hours, n=2, vs candidate compound non-contacted group. As for the experimental part:
In one embodiment, step (b) comprises measurement of cell viability. […] The cell viability is measured in the absence of TGF-β. […] The threshold value of the cell viability may be about 80%, about 85%, about 90%, about 95%, about 98%, about 99%, about 100%. […] Thus, a drug can be accurately selected by measuring cell number in addition to measuring caspase activity. Although the compounds shown in Table 2 appeared to be suppressing caspase activity, the compounds had strong toxicity, wherein cell viability went below 90%, and were thereby removed in the secondary screening.
Cell viability is calculated as an indicator of toxicity with n=2 in CellTiter-Glo® Luminescent Cell Viability Assay (Promega catalogue number: G7570). The cell viability was measured after culturing the cells in Dulbecco's Modified Eagle Medium (DMEM)+2% fetal bovine serum (FBS)+1% penicillin/streptomycin (P/S) for 28 hours. The cell viability was measured in the absence of TGF-β. When the cell viability was below 90%, the cells were removed from ranking.
For orientation: In ATP-based viability assays light output follows the ATP content of the culture.

Setting [3] is: 28 h, secondary screening Caspase 3/7 activity divided by cell viability, read-out: Caspase 3/7 activity/Viable cell number (%).
The mark [4] stands for this setting: TGF-β2 5 ng/mL + agent 10 μM, 28 hours, n=2, TGF-β2 supplemented group set as 100%, read-out: Primary screening Caspase 3/7 activity (%).
Setting [5] is: TGF-β2 5 ng/mL + agent 10 μM, 28 hours, n=5, vs candidate compound non-contacted group, read-out: Secondary screening Caspase 3/7 activity (%).

Where a name gives a salt, the structure may show the parent alone. Read-outs that look alike come from different tables or passages of the source.

For the compound `N#Cc1ccc(C(c2ccc(C#N)cc2)n2cncn2)cc1` [Letrozole], the activity at 10 µM is 102% in data set [1] (setting [3]), 71.2% in data set [1] (setting [4]) and 104% in data set [1] (setting [5]). In addition, the “Cell viability class mark (before Viable cell number)” value (“Cell viability class mark” for short) in data set [2] is on record as “∘ (90% or more cell viability)”. Besides, the “Secondary screening Viable cell number (%)” value in data set [2] was 101.3%.
As for `O=C(O)c1ccc(-n2nc(-c3ccccc3O)nc2-c2ccccc2O)cc1` [Deferasirox], the activity at 10 µM is 68.9% in data set [1] (setting [3]), 50% in data set [1] (setting [4]) and 38.6% in data set [1] (setting [5]). Besides, the “Cell viability class mark” value in data set [2] was “x (less than 90% cell viability)”. Besides, the “Secondary screening Viable cell number (%)” value in data set [2] stood at 56.04%.
The like results for `CN1CC2c3ccccc3Oc3ccc(Cl)cc3C2C1` (stereo not shown) [Asenapine Maleate] were, in that order, 87.4%, 72.8%, 88.8%, “∘ (90% or more cell viability)” and 101.64%.
The like results for `COc1ccccc1OCCNCC(O)COc1cccc2[nH]c3ccccc3c12` (stereo not shown) [Carvedilol] were, in that order, 71.9%, 50.3%, 64.1%, “x (less than 90% cell viability)” and 89.1%.
On to `COc1cc(NC(C)CCCN)c2ncccc2c1` (stereo not shown) [Primaquine Phosphate], for which, in data set [2], the “Cell viability class mark” value is “∘ (90% or more cell viability)” and the “Secondary screening Viable cell number (%)” value turned out to be 99.7%.
`CC[C@@H]1/C=C(\C)C[C@H](C)C[C@H](OC)[C@H]2O[C@@](O)(C(=O)C(=O)N3CCCC[C@H]3C(=O)O[C@H](/C(C)=C/[C@@H]3CC[C@H](Cl)[C@H](OC)C3)[C@H](C)[C@@H](O)CC1=O)[C@H](C)C[C@@H]2OC` [Pimecrolimus]: the figures for the activity at 10 µM in data set [1] (setting [3]), in data set [1] (setting [4]) and in data set [1] (setting [5]) were 62.6%, 70.1% and 53%, respectively. Also, the “Cell viability class mark” value in data set [2] is listed as “x (less than 90% cell viability)”. In data set [2], the “Secondary screening Viable cell number (%)” value is reported as 84.64%.
With `COc1c(C)c2c(c(O)c1C/C=C(\C)CCC(=O)OCCN1CCOCC1)C(=O)OC2` [Mycophenolate Mofetil], the activity at 10 µM in data set [1] (setting [3]) was determined as 70.4%; in data set [1] (setting [4]) it was 46.4%; in data set [1] (setting [5]), 47.6%. Further, the “Cell viability class mark” value in data set [2] was “x (less than 90% cell viability)”. The “Secondary screening Viable cell number (%)” value in data set [2] is reported as 67.7%.
Consider `CCCC(=O)Nc1ccc(OCC(O)CNC(C)C)c(C(C)=O)c1.Cl` (stereo not shown) [Acebutolol•HCl], for which the “Primary screening Caspase 3/7 activity (%)” value in data set [1] (TGF-β2 5 ng/mL + agent 10 μM, 28 hours, n=2, TGF-β2 supplemented group set as 100%) worked out at 74.30%. Moreover, the “Secondary screening Caspase 3/7 activity (%)” value in data set [1] (TGF-β2 5 ng/mL + agent 10 μM, 28 hours, n=5, vs candidate compound non-contacted group) came to 88.05%. The “Caspase 3/7 activity/Viable cell number (%)” value in data set [1] (secondary screening Caspase 3/7 activity divided by cell viability) stood at 88.25%. Further, in data set [2], the “Cell viability class mark” value is given as “∘ (90% or more cell viability)” and the “Secondary screening Viable cell number (%)” value is reported as 99.77%.
As to `Cc1[nH]c(=O)c(C#N)cc1-c1ccncc1` [Milrinone], the activity at 10 µM in data set [1] (setting [3]) came to 95.2%; in data set [1] (setting [4]) it was 62.5%; in data set [1] (setting [5]) it was 94.9%. For the same compound, the “Cell viability class mark” value in data set [2] is “∘ (90% or more cell viability)”. The “Secondary screening Viable cell number (%)” value in data set [2] worked out at 99.67%.
Consider `CN(C)[C@@H]1C(O)=C(C(N)=O)C(=O)[C@@]2(O)C(O)=C3C(=O)c4c(O)cccc4[C@@](C)(O)[C@H]3C[C@@H]12` [Tetracycline], for which the activity at 10 µM in data set [1] (setting [3]) amounted to 94.3%; in data set [1] (setting [4]) it was 60.1%; in data set [1] (setting [5]) it was 93.7%. Besides, the “Cell viability class mark” value in data set [2] was “∘ (90% or more cell viability)”. In addition, the “Secondary screening Viable cell number (%)” value in data set [2] is 99.31%.
The like results for `CC(=O)Oc1ccccc1C(=O)Nc1ncc([N+](=O)[O-])s1` [Nitazoxanide] were, in that order, 49.3%, 36.5%, 43.3%, “x (less than 90% cell viability)” and 87.81%.

For the origin of these results see US20200386744A1, “NOVEL SCREENING METHOD FOR TGF-BETA INHIBITOR” (The Doshisha, priority 2017, published 2020).
